Earlier results as cited in patent US8614228B2, “Quinone prodrug compositions and methods of use” (ArQule, Inc., priority 2004, dated 2013).

Tested on: normal fresh or proliferating human PBMC

CC1(C)CCC2=C(O1)c1ccccc1C(=O)C2=O [β-lapachone, 3,4-dihydro-2,2-dimethyl-2H-naphtho[1,2-b]pyran-5,6-dione]
cytotoxic effects: No cytotoxic effects were observed
